Data published in article PMC12202533, “Mechanistic Insights and Anti-cancer Activity of 2H-benzo[b][1,4]oxazin-3(4H)-one Linked 1,2,3-Triazoles in Human Cancer Cells” (Frontiers in Pharmacology, 2025).
Like-named read-outs stand apart in the source and are kept apart here.

What was measured:
A549 cells [1] = test: Western blot analysis of autophagy, DNA damage and cell cycle proteins; type: cell-based, human; conditions: A549, 5, 10, 20 μM, 48 h
Procedure: Next, we measured the expression of key proteins involved in autophagy, DNA damage, and cell cycle progression in 14b and 14c compound-exposed cells. After treatment for 48 h, cell proteins were collected and measured by Western blot. […] Proteins in cell cycle progression, including cyclin D, cyclin E, and β-catenin, however, were not affected in the 14 b compound exposure group compared with the control group. […] However, the key regulators involved in autophagy and cell cycle progression, such as LC3, cyclin D, cyclin E, and β-catenin, were not changed.
FIGURE 7 Compounds 14b and 14c affected DNA damage and autophagy. A549 cells were treated with different concentrations of 14b (A) and 14c (B) (5 μM, 10 μM, and 20 μM) for 48 h. Protein expressions were analyzed by Western blot. Top: Western blot of LC3, γ-H2AX, PARP, cyclin D, cyclin E, and β-catenin. Bottom: quantitative measurements relative to ACTIN. Data are presented as mean ± SEM, *P < 0.05.
The following antibodies were used for Western blot analysis: LC3, γ-H2AX, PARP, cyclin D, cyclin E, β-Catenin, and β-actin. Cells were treated with compounds (0, 5, 10, and 20 μM) for 48 h, and total cell proteins were extracted using RIPA buffer containing a protease/phosphatase inhibitor cocktail. Protein expression levels were measured and analyzed by Western blotting.

BEAS-2B cells = test: Calcein AM/PI live/dead viability assay, normal lung cells; type: cell-based; conditions: BEAS-2B, 5, 10, 20 μM, 24 h
Procedure: To investigate the role of 14b and 14c in regulating cell proliferation and death, A549 cells were treated with different concentrations of compounds for 24 h, and the live/dead cell numbers were then observed by staining with calcein AM and propidium iodide.
FIGURE 4 Compound 14b and 14c increased dead cells and decreased live cells. (A–B) A549 cells were treated with different concentrations of 14b and 14c (5 μM, 10 μM, and 20 μM) for 24 h (C–D) BEAS-2B cells were treated with different concentrations of 14b and 14c (5 μM, 10 μM, and 20 μM) for 24 h. Live and dead cell numbers were stained with calcein in AM and PI, respectively, and cells were observed by confocal microscopy. Data are presented as mean ± SEM, *P < 0.05.
The live/dead viability assay was performed using the Calcein/PI Live/Dead Viability Assay Kit. A549 cells were plated at a density of 5 × 10^3 cells per well in a 96-well plate and allowed to adhere overnight. Compounds were then added at concentrations of 0, 5, 10, or 20 μM for 24 h. After replacing the medium with fresh culture medium containing Calcein AM and propidium iodide, the cells were incubated for 30 min at 37°C in the dark. Live and dead cells were observed and photographed using a confocal microscope.

A549 cells [2] = test: Cellular ROS level measurement (DCFH-DA); type: cell-based, human; conditions: A549, 5, 10 or 20 μM, 24 h
Excerpt: Intracellular reactive oxygen species (ROS) generation will result in mitochondrial membrane damage and further induce cell apoptosis and cell death. To determine whether compounds 14b and 14c could induce ROS generation, we treated A549 cells with different doses of these two compounds and measured the intracellular ROS levels using the DCFH-DA peroxide-sensitive fluorescent dye. When DCFH-DA entered the cells, it would hydrolyze into DCFH by esterase and then convert to non-diffusible green fluorescent DCF by oxidation.
FIGURE 6 Compounds 14b and 14c increased ROS levels. A549 cells were treated with different concentrations of 14b (A) and 14c (B) (5 μM, 10 μM, or 20 μM) for 24 h. ROS levels were stained using DCFH-DA, observed by confocal microscopy, and analyzed by ImageJ. Data are presented as mean ± SEM, *P < 0.05.
A549 cells were seeded at a density of 5 × 10^3 cells per well in a 96-well plate and allowed to adhere overnight. Compounds were then added at concentrations of 0, 5, 10, and 20 μM for 24 h. After treatment, the medium was removed, and fresh medium without FBS but containing 10 μM DCFH-DA was added and incubated in the dark for 30 min. The cells were washed three times with FBS-free medium to remove excess probe. ROS levels were then measured and imaged using confocal microscopy.

A549 = test: CCK-8 cell viability assay and IC50 measurement; type: cell-based, human; conditions: Homo sapiens; for viability at 40 µM / inhibition at 40 µM: A549, 40 μM, 48 h; for viability at 40 µM: CCK-8, read-out: Cell viability (100%), 40 μM, 48 h, A549; for inhibition at 40 µM: read-out: inhibition rate
Procedure: In order to investigate the anticancer activity of new synthetic 1,4-benzoxazinone-linked 1,2,3-triazole compounds, we chose several cancer cell lines, including A549 (lung), Huh7 (liver), MCF-7 (breast), HCT-116 (colon), and SKOV3 (ovary), and measured cell viability using the CCK-8 assay. Cells were exposed to 40 μM of the compounds for 48 h, and then cell viability was determined. […] In addition, we used the reference drug gefitinib as a positive control and measured its cell viability on different cell lines. […] We used BEAS-2B cells as a normal cell line to determine the toxic effects of these compounds on normal cells. […] Furthermore, we evaluated the IC50 of these compounds in A549.
Human cancer cell lines A549, Huh7, MCF-7, HCT-116, and SKOV3 were obtained from ATCC. The cells were cultured in DMEM or RPMI 1640 medium supplemented with 10% FBS and 1% penicillin/streptomycin and incubated at 37°C in a CO2-humidified atmosphere.
Cells were cultured in DMEM or RPMI 1640 medium containing 10% FBS and 1% penicillin/streptomycin at 37°C and 5% CO2. The CCK-8 assay was performed on several human cancer cell lines, including A549, Huh7, MCF-7, HCT-116, and SKOV3, according to the manufacturer’s instructions. Cells were plated at a density of 5 × 10^3 cells per well in a 96-well plate. After 24 h of incubation, cells were treated with 40 μM compounds for 48 h. Cell viability was assessed by adding 10 μL of CCK-8 reagent, dissolved in the cell culture medium, and incubating for 1 h. Absorbance was measured at 450 nm using a microplate reader. IC50 values were determined using a dose-response curve with six concentrations (0, 10, 20, 40, 80, and 160 μM), and IC50 values were calculated using GraphPad Prism software.

[3] = A549, 48 h, read-out: IC50 48 h
[4] = A549, 72 h, read-out: IC50 72 h

SMILES	PARP expression (A549 cells [1])	cell cycle progression proteins cyclin D, cyclin E, and β-catenin (A549 cells [1])	ratio of LC3II to LC3I / LC3 (autophagy) (A549 cells [1])	γ-H2AX protein expression (A549 cells [1])	cytotoxicity in normal lung cells (BEAS-2B cells)	ROS generation (A549 cells [2])	IC50 (A549; [3]) [µM]	IC50 (A549; [4]) [µM]	viability at 40 µM (A549) [%]	inhibition at 40 µM (A549) [%]
O=C1COc2ccc(NC(=O)c3cccc(-c4cn(-c5cccc(Br)c5)nn4)c3)cc2N1 [Compound 14b]	not changed	not affected	increased	induced	minimal cytotoxicity	increased ROS generation	25.1 ± 4.62	7.59 ± 0.31	27 ± 0.98	> 50
O=C1COc2ccc(NC(=O)c3cccc(-c4cn(-c5ccccc5F)nn4)c3)cc2N1 [Compound 14c]		not changed	not changed	increased expression	minimal cytotoxicity	increased ROS generation	24.1 ± 3.83	18.5 ± 0.59	22.6 ± 0.88	> 50
